How the values were obtained:
Settings in all cases: exposure time: 72 h
E13 [1] = patient-derived glioblastoma stem cells of classical subtype; test: surviving fraction (nuclei count normalised to DMSO); higher = more cells surviving (less toxic)
E21 [2] = patient-derived glioblastoma stem cells of mesenchymal subtype; test: as above
E28 [3] = patient-derived glioblastoma stem cells of classical subtype; test: as above
E31 [4] = patient-derived glioblastoma stem cells of proneural subtype; test: as above
E34 [5] = patient-derived glioblastoma stem cells of proneural subtype; test: as above
E57 [6] = patient-derived glioblastoma stem cells of mesenchymal subtype; test: as above
FT3469 [7] = normal neural stem cell line; test: as above
E13 [8] = test: phenotypic distance (Euclidean, principal components) from DMSO controls (arbitrary units); higher = stronger morphological change
E21 [9] = test: as above
E28 [10] = test: as above
E31 [11] = test: as above
E34 [12] = test: as above
E57 [13] = test: as above
FT3469 [14] = test: as above
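Throughout, for phenotypic distance (Euclidean, principal components) from DMSO controls: cell Painting imaging in 384-well plates, CellProfiler features reduced to at least 20 principal components, Euclidean distance versus same-plate DMSO vehicle wells (0.1% v/v), median over six images per well.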
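Throughout, for surviving fraction (nuclei count normalised to DMSO): nuclei counted by high-content imaging of Hoechst-stained cells in laminin-coated 384-well plates, relative to 0.1% DMSO vehicle wells, with staurosporine as cell-death control.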

Cc1ccc(/C=N/NC(=O)c2n[nH]c3c2CCCC3)cc1 [Suprafenacine]
Settings | phenotypic distance | surviving fraction
E13 [1], 4.1 nM | – | 0.909
E13 [1], 12.3 nM | – | 0.853
E13 [1], 37 nM | – | 0.86
E13 [1], 111.1 nM | – | 0.536
E13 [1], 333.3 nM | – | 0.144
E13 [1], 1000 nM | – | 0.235
E13 [1], 3000 nM | – | 0.1
E13 [8], 4.1 nM | 0.782 | –
E13 [8], 12.3 nM | 0.752 | –
E13 [8], 37 nM | 1.13 | –
E13 [8], 111.1 nM | 3.22 | –
E13 [8], 333.3 nM | 7.1 | –
E13 [8], 1000 nM | 7.86 | –
E13 [8], 3000 nM | 5.88 | –
E21 [2], 4.1 nM | – | 0.963
E21 [2], 12.3 nM | – | 0.931
E21 [2], 37 nM | – | 0.982
E21 [2], 111.1 nM | – | 0.453
E21 [2], 333.3 nM | – | 0.0832
E21 [2], 1000 nM | – | 0.113
E21 [2], 3000 nM | – | 0.0664
E21 [9], 4.1 nM | 0.928 | –
E21 [9], 12.3 nM | 0.73 | –
E21 [9], 37 nM | 1.18 | –
E21 [9], 111.1 nM | 4.45 | –
E21 [9], 333.3 nM | 9.28 | –
E21 [9], 1000 nM | 6.44 | –
E21 [9], 3000 nM | 9.19 | –
E28 [3], 4.1 nM | – | 0.954
E28 [3], 12.3 nM | – | 0.896
E28 [3], 37 nM | – | 0.922
E28 [3], 111.1 nM | – | 0.742
E28 [3], 333.3 nM | – | 0.325
E28 [3], 1000 nM | – | 0.31
E28 [3], 3000 nM | – | 0.217
E28 [10], 4.1 nM | 0.615 | –
E28 [10], 12.3 nM | 0.72 | –
E28 [10], 37 nM | 0.724 | –
E28 [10], 111.1 nM | 1.34 | –
E28 [10], 333.3 nM | 3.15 | –
E28 [10], 1000 nM | 4.1 | –
E28 [10], 3000 nM | 5.78 | –
E31 [4], 4.1 nM | – | 0.95
E31 [4], 12.3 nM | – | 0.845
E31 [4], 37 nM | – | 0.709
E31 [4], 111.1 nM | – | 0.454
E31 [4], 333.3 nM | – | 0.0666
E31 [4], 1000 nM | – | 0.0444
E31 [4], 3000 nM | – | 0.0399
E31 [11], 4.1 nM | 0.29 | –
E31 [11], 12.3 nM | 1.07 | –
E31 [11], 37 nM | 1.19 | –
E31 [11], 111.1 nM | 2.14 | –
E31 [11], 333.3 nM | 6.25 | –
E31 [11], 1000 nM | 9.97 | –
E31 [11], 3000 nM | 12.3 | –
E34 [5], 4.1 nM | – | 1.01
E34 [5], 12.3 nM | – | 0.905
E34 [5], 37 nM | – | 0.938
E34 [5], 111.1 nM | – | 0.69
E34 [5], 333.3 nM | – | 0.409
E34 [5], 1000 nM | – | 0.375
E34 [5], 3000 nM | – | 0.237
E34 [12], 4.1 nM | 0.442 | –
E34 [12], 12.3 nM | 1.02 | –
E34 [12], 37 nM | 0.706 | –
E34 [12], 111.1 nM | 1.69 | –
E34 [12], 333.3 nM | 5.34 | –
E34 [12], 1000 nM | 6.45 | –
E34 [12], 3000 nM | 8.8 | –
E57 [6], 4.1 nM | – | 0.914
E57 [6], 12.3 nM | – | 0.922
E57 [6], 37 nM | – | 0.883
E57 [6], 111.1 nM | – | 0.685
E57 [6], 333.3 nM | – | 0.0911
E57 [6], 1000 nM | – | 0.0842
E57 [6], 3000 nM | – | 0.0511
E57 [13], 4.1 nM | 1.71 | –
E57 [13], 12.3 nM | 0.929 | –
E57 [13], 37 nM | 0.819 | –
E57 [13], 111.1 nM | 3.04 | –
E57 [13], 333.3 nM | 5.2 | –
E57 [13], 1000 nM | 5.41 | –
E57 [13], 3000 nM | 6.18 | –
FT3469 [7], 4.1 nM | – | 0.873
FT3469 [7], 12.3 nM | – | 0.804
FT3469 [7], 37 nM | – | 0.848
FT3469 [7], 111.1 nM | – | 0.492
FT3469 [7], 333.3 nM | – | 0.527
FT3469 [7], 1000 nM | – | 0.471
FT3469 [7], 3000 nM | – | 0.295
FT3469 [14], 4.1 nM | 1.07 | –
FT3469 [14], 12.3 nM | 1.84 | –
FT3469 [14], 37 nM | 1.31 | –
FT3469 [14], 111.1 nM | 2.86 | –
FT3469 [14], 333.3 nM | 3.59 | –
FT3469 [14], 1000 nM | 3.7 | –
FT3469 [14], 3000 nM | 6.28 | –

COc1ccc2c(c1)CC[C@@H]1[C@@H]2CC[C@]2(C)[C@@H](NCCCCCCN3C(=O)CCC3=O)CC[C@@H]12
Settings | phenotypic distance | surviving fraction
E13 [1], 4.1 nM | – | 0.826
E13 [1], 12.3 nM | – | 0.95
E13 [1], 37 nM | – | 0.876
E13 [1], 111.1 nM | – | 0.929
E13 [1], 333.3 nM | – | 0.981
E13 [1], 1000 nM | – | 0.804
E13 [1], 3000 nM | – | 0.52
E13 [8], 4.1 nM | 1.07 | –
E13 [8], 12.3 nM | 0.714 | –
E13 [8], 37 nM | 0.93 | –
E13 [8], 111.1 nM | 1.11 | –
E13 [8], 333.3 nM | 1.31 | –
E13 [8], 1000 nM | 2.29 | –
E13 [8], 3000 nM | 3.72 | –
E21 [2], 4.1 nM | – | 1.03
E21 [2], 12.3 nM | – | 0.961
E21 [2], 37 nM | – | 0.951
E21 [2], 111.1 nM | – | 1.13
E21 [2], 333.3 nM | – | 1.06
E21 [2], 1000 nM | – | 0.867
E21 [2], 3000 nM | – | 0.645
E21 [9], 4.1 nM | 0.642 | –
E21 [9], 12.3 nM | 0.74 | –
E21 [9], 37 nM | 0.741 | –
E21 [9], 111.1 nM | 0.893 | –
E21 [9], 333.3 nM | 0.934 | –
E21 [9], 1000 nM | 1.42 | –
E21 [9], 3000 nM | 4.65 | –
E28 [3], 4.1 nM | – | 1.09
E28 [3], 12.3 nM | – | 1.03
E28 [3], 37 nM | – | 1.03
E28 [3], 111.1 nM | – | 1.09
E28 [3], 333.3 nM | – | 1.1
E28 [3], 1000 nM | – | 1.01
E28 [3], 3000 nM | – | 0.973
E28 [10], 4.1 nM | 0.61 | –
E28 [10], 12.3 nM | 0.49 | –
E28 [10], 37 nM | 0.46 | –
E28 [10], 111.1 nM | 0.724 | –
E28 [10], 333.3 nM | 0.645 | –
E28 [10], 1000 nM | 0.805 | –
E28 [10], 3000 nM | 2.44 | –
E31 [4], 4.1 nM | – | 0.965
E31 [4], 12.3 nM | – | 1.14
E31 [4], 37 nM | – | 0.985
E31 [4], 111.1 nM | – | 1.05
E31 [4], 333.3 nM | – | 1.06
E31 [4], 1000 nM | – | 0.962
E31 [4], 3000 nM | – | 0.624
E31 [11], 4.1 nM | 0.697 | –
E31 [11], 12.3 nM | 0.31 | –
E31 [11], 37 nM | 0.566 | –
E31 [11], 111.1 nM | 0.735 | –
E31 [11], 333.3 nM | 1.61 | –
E31 [11], 1000 nM | 2.54 | –
E31 [11], 3000 nM | 6.23 | –
E34 [5], 4.1 nM | – | 0.876
E34 [5], 12.3 nM | – | 0.901
E34 [5], 37 nM | – | 1.13
E34 [5], 111.1 nM | – | 0.957
E34 [5], 333.3 nM | – | 0.939
E34 [5], 1000 nM | – | 0.979
E34 [5], 3000 nM | – | 0.986
E34 [12], 4.1 nM | 1.13 | –
E34 [12], 12.3 nM | 0.657 | –
E34 [12], 37 nM | 0.637 | –
E34 [12], 111.1 nM | 0.671 | –
E34 [12], 333.3 nM | 0.968 | –
E34 [12], 1000 nM | 1.06 | –
E34 [12], 3000 nM | 0.95 | –
E57 [6], 4.1 nM | – | 1.11
E57 [6], 12.3 nM | – | 1.04
E57 [6], 37 nM | – | 1.13
E57 [6], 111.1 nM | – | 1.13
E57 [6], 333.3 nM | – | 1.17
E57 [6], 1000 nM | – | 1.11
E57 [6], 3000 nM | – | 0.936
E57 [13], 4.1 nM | 3.52 | –
E57 [13], 12.3 nM | 0.302 | –
E57 [13], 37 nM | 0.424 | –
E57 [13], 111.1 nM | 0.621 | –
E57 [13], 333.3 nM | 1.22 | –
E57 [13], 1000 nM | 1.78 | –
E57 [13], 3000 nM | 2.68 | –
FT3469 [7], 4.1 nM | – | 0.984
FT3469 [7], 12.3 nM | – | 1.11
FT3469 [7], 37 nM | – | 1.03
FT3469 [7], 111.1 nM | – | 1.11
FT3469 [7], 333.3 nM | – | 1.06
FT3469 [7], 1000 nM | – | 0.922
FT3469 [7], 3000 nM | – | 0.983
FT3469 [14], 4.1 nM | 0.686 | –
FT3469 [14], 12.3 nM | 0.245 | –
FT3469 [14], 37 nM | 0.58 | –
FT3469 [14], 111.1 nM | 0.496 | –
FT3469 [14], 333.3 nM | 0.408 | –
FT3469 [14], 1000 nM | 0.646 | –
FT3469 [14], 3000 nM | 0.711 | –

— the supplement of paper PMC13207355
